Measured values from patent publication US20030027981A1, “Urokinase-type plasminogen activator receptor” (priority 1989, published 2003).

Legend:
cell-bound pro-u-PA = experiment: Pro-u-PA index of cell-bound u-PA on HT-1080 cells (immunocapture assay with NPGB step); assay type: cell-based, human; conditions: for Pro-u-PA index (%): 2 h, serum medium, all with Plg 40 μg/ml, aprotinin (200 KIU/ml), anti-Plg-1 (20 μg/ml), TA (100 μM) rows also with anti-PAI-1 10 μg/ml
Description: FIG. 27. Activation of cell-bound u-PA proenzyme in serum medium after the addition of plasminogen. Confluent layers of HT-1080 cells were incubated with MEM medium containing 10% heat-inactivated and plasminogen-depleted fetal calf serum and native human plasminogen (40 μg/ml). After the time intervals shown, aprotinin (200 KIU/ml) was added and the rinsed cells were treated with acid-glycine to recover the bound fraction of u-PA. The u-PA in the neutralized eluate was assayed by an immunocapture method, using an NPGB inactivation step to determined the pro-u-PA index (see Methods).
Cell culture supernatants were assayed for pro-u-PA and active u-PA by the following modification of an immunocapture method (Stephens et al., 1988; Stephens et al., 1987). Microtitre wells of polystyrene immunoplates (type 269620, A/S Nunc, Roskilde, Denmark) were coated overnight at 37° C. with 50 μl of a solution of goat IgG antibodies to human u-PA (cat. #398, American Diagnostica). The coating solution contained 2.5 μg of IgG per ml of […] sodium carbonate (pH 9.8). After rinsing, the wells were treated with conditioned medium ([…]) for 2 hours at 23° C., then rinsed again. Half the wells were then treated with 50 μl of freshly prepared 2 μM p-nitrophenyl guanidinobenzoate (NPGB, Sigma) (Danø, K., and E. Reich, “Plasminogen activator from cells transformed by an oncogenic virus—Inhibitors of the activator reaction”, Biochim. Biophys. Acta 566: 138-151, 1979) for 20 minutes at 37° C. The other half (controls) received 50 μl of rinsing buffer (0.05% Tween 20 in PBS). After rinsing, u-PA was assayed in all the wells by addition of 40 μl of plasminogen solution (100 μg/ml in assay buffer consisting of 50 mM sodium glycinate (pH 7.8), 0.1% Triton X-100, 0.1% gelatin and 10 mM 6-aminocaproic acid which also contained a very low concentration of plasmin (10 ng/ml)), and incubation took place for 30 minutes at 37° C. This concentration of plasmin in the plasminogen incubation was sufficient to enable full realization of the potential activity of pro-u-PA (cf. Petersen et al., 1988). […] This mixture was incubated for 30 minutes at 37° C., and the absorbancies of the wells were read at 405 nm. […]
Pro-u-PA and active u-PA bound to the cell layer were recovered for immunocapture assays by the same method as was used in the metabolic labelling (see above). […] For conditioned medium and cell-bound u-PA, the u-PA activity assayed after NPGB treatment was expressed as a percentage of the total activity obtained without NPGB treatment, and this percentage used as an index of pro-u-PA content (pro-u-PA index). […]

u-PA = u-PA activity in medium of HT-1080 cultures (immunocapture assay); assay type: cell-based, human
Description: Cell culture supernatants were assayed for pro-u-PA and active u-PA by the following modification of an immunocapture method (Stephens et al., 1988; Stephens et al., 1987). Microtitre wells of polystyrene immunoplates (type 269620, A/S Nunc, Roskilde, Denmark) were coated overnight at 37° C. with 50 μl of a solution of goat IgG antibodies to human u-PA (cat. #398, American Diagnostica). The coating solution contained 2.5 μg of IgG per ml of […] sodium carbonate (pH 9.8). After rinsing, the wells were treated with conditioned medium ([…]) for 2 hours at 23° C., then rinsed again. Half the wells were then treated with 50 μl of freshly prepared 2 μM p-nitrophenyl guanidinobenzoate (NPGB, Sigma) (Danø, K., and E. Reich, “Plasminogen activator from cells transformed by an oncogenic virus—Inhibitors of the activator reaction”, Biochim. Biophys. Acta 566: 138-151, 1979) for 20 minutes at 37° C. The other half (controls) received 50 μl of rinsing buffer (0.05% Tween 20 in PBS). After rinsing, u-PA was assayed in all the wells by addition of 40 μl of plasminogen solution (100 μg/ml in assay buffer consisting of 50 mM sodium glycinate (pH 7.8), 0.1% Triton X-100, 0.1% gelatin and 10 mM 6-aminocaproic acid which also contained a very low concentration of plasmin (10 ng/ml)), and incubation took place for 30 minutes at 37° C. This concentration of plasmin in the plasminogen incubation was sufficient to enable full realization of the potential activity of pro-u-PA (cf. Petersen et al., 1988). The plasmin produced by this incubation was assayed by its thioesterase activity (Green, G. D. G., and E. Shaw, “Thiobenzyl benzyloxycarbonyl-L-lysinate, substrate for a sensitive colorimetric assay for trypsin-like enzymes”, Anal. Biochem. 93: 223-226, 1979) by the addition of 200 μl of a solution containing 200 mM potassium phosphate (pH 7.5), 200 MM KCl, 0.1% Triton X-100, 220 μM Z-lysine thiobenzyl ester (Peninsula Laboratories, Belmont, Calif.) and 220 μM 5,5′-dithiobis(2-nitrobenzoic acid) (Sigma). This mixture was incubated for 30 minutes at 37° C., and the absorbancies of the wells were read at 405 nm. Active u-PA (60,000 IU/mg) was purchased from Calbiochem-Behring (La Jolla, Calif.) and pro-u-PA (potential activity 90,000 IU/mg) was obtained from American Diagnostica.
The following additions were made to cell layers growing in MEM medium (0.5 ml) containing 10% heat-inactivated and plasminogen-depleted fetal calf serum: native human plasminogen (Plg, 40 μg/ml); anti-catalytic monoclonal antibody to human u-PA (10 μg/ml); anti-catalytic monoclonal antibody to human t-PA (10 μg/ml); PAI-2 (titration equivalent of 3.6 UI u-PA/ml); anti-catalytic monoclonal antibody to human plasmin (20 μg/ml); aprotinin (200 KIU/ml); tranexamic acid (TA, as shown). The cultures were incubated for the times shown before assay of cell-bound plasmin. The incubation with plasminogen was used as the 100% control for bound plasmin.
Confluent cell layers in serum medium (0.5 ml) were preincubated for 1 hour at 37° C. with an anti-catalytic monoclonal antibody to human u-PA (10 μg/ml) or PAI-2 (titration equivalent of 3.6 IU u-PA/ml). The cells were then rinsed three times with serum-free MEM medium before incubation for 3 hours at 37° C. with MEM medium containing 10% heat-inactivated and plasminogen-depleted fetal calf serum and native human plasminogen (Plg, 40 μg/ml). The incubation with plasminogen was used as the 100% control for bound plasmin while the control for u-PA was the incubation without plasminogen.

[1] = 3 h, serum medium with Plg 40 μg/ml, additions as b555, control without Plg = 100
[2] = 17 h, serum medium with Plg 40 μg/ml, additions as b555, control without Plg = 100

Row | Molecule | Pro-u-PA index (%) (cell-bound pro-u-PA) | u-PA activity in medium (%) (u-PA; 3 h, Plg 40 μg/ml + TA 10 μM) | u-PA activity in medium (%) (u-PA; 3 h, Plg 40 μg/ml + TA 100 μM) | u-PA activity in medium (%) (u-PA; 17 h, Plg 40 μg/ml + TA 10 μM) | u-PA activity in medium (%) (u-PA; 17 h, Plg 40 μg/ml + TA 100 μM) | Proportion of total surface-bound u-PA present as pro-u-PA (cell-bound pro-u-PA; cells incubated with human plasminogen 40 μg/ml in serum medium, plasminogen-free cultures approximately 90%) | u-PA activity in medium (%) (u-PA; [1]) | u-PA activity in medium (%) (u-PA; [2]) | u-PA activity in medium (%) (u-PA; cells preincubated 1 h with inhibitor, rinsed, then 3 h with Plg 40 μg/ml in serum medium)
1 | NC[C@H]1CC[C@H](C(=O)O)CC1 [TA, tranexamic acid] | 88% | 116% | 92% | 87% | 95% |  |  |  | 
2 | Plg: native human plasminogen (glutamic acid N-terminal) purified from human plasma on lysine-Sepharose | 50% |  |  |  |  | approximately 10% | 111% | 83% | 
3 | aprotinin | 93% |  |  |  |  |  | 93% | 99% | 
4 | PAI-2: human type-2 plasminogen activator inhibitor purified from U937 cells (protein, UniProt P05120 1-415, looked up) Plasminogen activator …: MEDLCVANTLFALNLFKHLAKASPTQNLFLSPWSISSTMAMVYMGSRGSTEDQMAKVLQFNEVGANAVTPMTPENFTSCGFMQQIQKGSYPDAILQAQAADKIHSSFRSLSSAINASTGNYLLESVNKLFGEKSASFREEYIRLCQKYYSSEPQAVDFLECAEEARKKINSWVKTQTKGKIPNLLPEGSVDGDTRMVLVNAVYFKGKWKTPFEKKLNGLYPFRVNSAQRTPVQMMYLREKLNIGYIEDLKAQILELPYAGDVSMFLLLPDEIADVSTGLELLESEITYDKLNKWTSKDKMAEDEVEVYIPQFKLEEHYELRSILRSMGMEDAFNKGRANFSGMSERNDLFLSEVFHQAMVDVNEEGTEAAAGTGGVMTGRTGHGGPQFVADHPFLFLIMHKITNCILFFGRFSSP |  |  |  |  |  |  | 89% | 77% | 86%
